Experimental data published in PMC4275348 (Molecular microbiology, 2014).
Substitutions are numbered along the chain they refer to.

Legend:
[1] = target: T1, LuxN (Vibrio campbellii, UniProt A7MRY4); assay type: cell-based, Vibrio harveyi; conditions: for effect on light production (antagonist activity) / reduction in light production: 1 μM AHL with 20 nM AI-1, V. harveyi TL25; for mechanism of antagonism: IC50 values measured at various concentrations of AI-1
[2] = target: T1, LuxN; conditions: 1 μM AHL; V. harveyi TL25
[3] = target: luxN^L166A/H210N (Vibrio campbellii, UniProt A7MRY4, H210N/L166A); conditions: AHLs added at 1 μM
[4] = target: LuxN^L166A (Vibrio campbellii, UniProt A7MRY4, L166A)
[5] = target: T2, LuxN^H210N (Vibrio campbellii, UniProt A7MRY4, H210N); assay: Bioluminescence of V. harveyi XK006 carrying luxN H210N; assay type: cell-based, Vibrio harveyi; conditions: AHLs supplied at 10 μM
T2 sequence (A7MRY4 1-849 H210N): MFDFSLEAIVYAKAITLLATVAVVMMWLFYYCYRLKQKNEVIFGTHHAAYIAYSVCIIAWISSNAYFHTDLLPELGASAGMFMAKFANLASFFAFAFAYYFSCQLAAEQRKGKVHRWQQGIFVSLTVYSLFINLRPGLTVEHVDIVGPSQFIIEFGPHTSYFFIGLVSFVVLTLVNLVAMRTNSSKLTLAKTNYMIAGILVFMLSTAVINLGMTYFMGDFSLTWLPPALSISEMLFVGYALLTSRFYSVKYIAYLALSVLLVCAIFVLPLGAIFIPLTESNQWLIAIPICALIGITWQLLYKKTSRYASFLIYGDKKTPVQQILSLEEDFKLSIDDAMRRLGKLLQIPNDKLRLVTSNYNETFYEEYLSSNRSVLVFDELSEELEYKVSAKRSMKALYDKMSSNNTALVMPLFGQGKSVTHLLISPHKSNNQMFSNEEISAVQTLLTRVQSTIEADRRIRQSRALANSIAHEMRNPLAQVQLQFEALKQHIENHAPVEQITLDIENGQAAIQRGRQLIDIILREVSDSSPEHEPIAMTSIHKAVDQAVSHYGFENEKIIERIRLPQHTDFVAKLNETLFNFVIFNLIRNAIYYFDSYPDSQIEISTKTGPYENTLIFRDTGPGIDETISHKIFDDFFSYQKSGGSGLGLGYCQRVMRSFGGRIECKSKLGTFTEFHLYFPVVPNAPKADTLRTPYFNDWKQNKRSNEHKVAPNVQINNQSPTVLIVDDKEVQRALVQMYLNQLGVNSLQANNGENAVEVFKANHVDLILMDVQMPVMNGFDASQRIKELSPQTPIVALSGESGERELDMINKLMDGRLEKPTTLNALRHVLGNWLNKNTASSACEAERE

[6] = target: T3, luxN^T159I/Y193K (Vibrio campbellii, UniProt A7MRY4, N193K/T159I); assay: Bioluminescence of V. harveyi XK006 carrying luxN T159I/Y193K; assay type: cell-based, Vibrio harveyi
T3 sequence (A7MRY4 1-849 T159I/N193K): T2 sequence (A7MRY4 1-849 H210N) with T159I, N193K, N210H

[7] = target: T4, luxN^S184I/S230P (Vibrio campbellii, UniProt A7MRY4, S184I/S230P); assay: Bioluminescence of V. harveyi XK006 carrying luxN S184I/S230P; assay type: cell-based, Vibrio harveyi
T4 sequence (A7MRY4 1-849 S184I/S230P): T2 sequence (A7MRY4 1-849 H210N) with S184I, N210H, S230P

[8] = target: T5, LuxN^G147D/Y194H (Vibrio campbellii, UniProt A7MRY4, G147D/Y194H); assay: Bioluminescence of V. harveyi XK006 carrying luxN G147D/Y194H; assay type: cell-based, Vibrio harveyi
T5 sequence (A7MRY4 1-849 G147D/Y194H): T2 sequence (A7MRY4 1-849 H210N) with G147D, Y194H, N210H

Compound: CC(=O)CC(=O)NC1CCOC1=O (stereo not drawn) [3O-C4 HSL]
- effect on light production (antagonist activity) [1]: did not decrease light production
- induction of light production [2]: did not induce light production

Compound: CCCC(=O)CC(=O)NC1CCOC1=O (stereo not drawn) [3O-C6 HSL]
- light production [3]: detected

Compound: CCCCCC(=O)CC(=O)NC1CCOC1=O (stereo not drawn) [3O-C8 HSL]
- detection (light production) [4]: only modest detection
- light production [3]: produced maximal light

Compound: CCCC(O)CC(=O)N[C@H]1CCOC1=O (stereo partly drawn) [3OH-C6 HSL]
- effect on light production (antagonist activity) [1]: little effect on light production

Compound: CCCCCCCC(O)CC(=O)N[C@H]1CCOC1=O (stereo partly drawn) [3OH-C10 HSL]
- reduction in light production [1]: 30 fold

Compound: CCCCCCCCCC(O)CC(=O)N[C@H]1CCOC1=O (stereo partly drawn) [3OH-C12 HSL]
- reduction in light production [1]: 100 fold

Compound: CCCCCC(=O)N[C@H]1CCOC1=O [C6 HSL]
- induction of light production [5]: activated modest light production
- light production [3]: detected

Compound: CCCCCCCCCC(=O)N[C@H]1CCOC1=O [C10 HSL]
- mechanism of antagonism [1]: behaved similarly to 3O-C12 HSL

Compound: CCCCCCCCCCCC(=O)N[C@H]1CCOC1=O [C12 HSL]
- response (dose-dependent light production) [6]: none responded
- response (dose-dependent light production) [7]: none responded
- response (dose-dependent light production) [8]: none responded

Compound: phenoxy-thiolactone [PTL]
- mechanism of antagonism [1]: behaved similarly to 3O-C12 HSL
